From patent US10927067B2, “Organic crystalline salt of haloacetic acid” (priority 2016, dated 2021)

Key:
MCF7 cells = assay: zebrafish xenotransplantation tumor model (zebrafish model of hepatocarcinoma), oral dosing with feed for 14 days; format: in vivo
Protocol: The study was carried out in group sizes of 6 adult fish. Fish were induced with tumor through xenotransplantation of log phase cells. Groups were treated with compounds through oral dosing and treated groups were compared to vehicle treated, to quantify activity against tumor.
Fishes were anesthetized using cold water of 15° C. and 3 ul of 1×10^6 log phase MCF7 cells were injected into the peritoneum to induce tumor. Fish were transferred to housing tanks and maintained for 21 days until tumor reached maximum growth phase.
The stock compound is prepared by dissolving appropriate amount of compound in 1 ml of Phosphate Buffered Saline (PBS—8 g of NaCl, 0.2 g of KCl, 1.44 g of Na2HPO4 and 0.24 g of KH2PO4 is made to 1 litre and pH adjusted to 7.4.) containing 20% DMSO and 30% fish feed grade coconut oil and stored at 4° C. until use.
Fishes were dosed by mixing the compound with feed for 14 days. A per day dosing weight of compound was dissolved in 3 ul of compound dissolving medium and added to a pellet. The pellets were dried at 70 degrees to remove moisture prior to adding compound and post addition and absorption of compound the pellets were transferred to 4° C.
Statistical comparisons were made using GraphPad. Student's t test with a 95% confidence interval was performed using a two-way ANOVA at an alpha=0.05 (95% confidence interval). Significance is denoted with asterisks: ns not significant, *P<0.05, **P<0.01, ***P<0.001, ****P<0.0001.

[1] = DSC, FIG. 5
Protocol: DSC measurements were carried out using STA 6000 (Simultaneous Thermal Analyzer TG with DSC/DTA).
TGA measurements were carried out using STA 6000 (Simultaneous Thermal Analyzer TG with DSC/DTA).

[2] = crystals from 95% ethanol, Example 3
Protocol: Mixture of dichloroacetic acid (V) (1.28 g, 1.2894 mmol) and tromethamine (DI) (1.2 g) are dissolved in 10 ml of 95% ethanol.

[3] = 5 mM concentration, 14 days treatment, FIG. 8

Row | Compound | mortality (MCF7 cells; 1 mM concentration, FIG. 7) | relative neovascularization reversal (MCF7 cells; 1 mM concentration, FIG. 7) | tumor reversal (MCF7 cells; 1 mM concentration, FIG. 7) | mortality (MCF7 cells; [3]) | neovascularization reversal (MCF7 cells; 5 mM concentration, FIG. 8) | relative tumor reversal (MCF7 cells; 5 mM concentration, FIG. 8) | thermally stable upto [1] | water solubility [2]
1 | O=C([O-])C(Cl)Cl.[Na+] [Formula (VI), sodium dichloroacetate, reference compound] | 70% | 60% | 40% | 90% | 70% | 50% |  | 
2 | dichloroacetate tromethamine [Formula (VII)] | No mortality | ≤ 90% | ≤ 60% | No mortality | complete | up to 90% | ≤ 150 °C | water soluble
